{"source": "ChEMBL document CHEMBL1201862", "about": "“PubChem BioAssay data set” (2004)", "experiment_in_all_cases": "NCI-60 cell line screen, 48 h", "key": {"SNB-19": {"tested_on": "SNB-19"}, "OVCAR-3": {"tested_on": "OVCAR-3"}, "NCI-H460": {"tested_on": "NCI-H460"}, "NCI-H522": {"tested_on": "NCI-H522"}, "HOP-92": {"tested_on": "HOP-92"}, "COLO 205": {"tested_on": "COLO 205"}, "SF-539": {"tested_on": "SF-539"}, "SNB-75": {"tested_on": "SNB-75"}, "K562": {"tested_on": "K562"}, "SF-268": {"tested_on": "SF-268"}, "CAKI-1": {"tested_on": "CAKI-1"}, "HOP-62": {"tested_on": "HOP-62"}, "SF-295": {"tested_on": "SF-295"}, "OVCAR-4": {"tested_on": "OVCAR-4"}, "SK-OV-3": {"tested_on": "SK-OV-3"}, "RXF 393": {"tested_on": "RXF 393"}, "HOP-18": {"tested_on": "HOP-18"}, "U-251": {"tested_on": "U-251"}, "SK-MEL-28": {"tested_on": "SK-MEL-28"}, "HCT-15": {"tested_on": "HCT-15"}, "A498": {"tested_on": "A498"}, "XF498": {"tested_on": "XF498"}, "UACC-257": {"tested_on": "UACC-257"}, "SW-620": {"tested_on": "SW-620"}, "HL-60": {"tested_on": "HL-60"}, "NCI-H226": {"tested_on": "NCI-H226"}, "OVCAR-8": {"tested_on": "OVCAR-8"}, "M19-MEL": {"tested_on": "M19-MEL"}, "DMS-114": {"tested_on": "DMS-114"}, "HCT-116": {"tested_on": "HCT-116"}, "NCI/ADR-RES": {"tested_on": "NCI/ADR-RES"}, "SK-MEL-2": {"tested_on": "SK-MEL-2"}, "HT-29": {"tested_on": "HT-29"}, "LOX IMVI": {"tested_on": "LOX IMVI"}, "EKVX": {"tested_on": "EKVX"}, "RPMI-8226": {"tested_on": "RPMI-8226"}, "SN12C": {"tested_on": "SN12C"}, "IGROV-1": {"tested_on": "IGROV-1"}, "OVCAR-5": {"tested_on": "OVCAR-5"}, "KM-20L2": {"tested_on": "KM-20L2"}, "CCRF-CEM": {"tested_on": "CCRF-CEM"}, "DMS-273": {"tested_on": "DMS-273"}, "UACC-62": {"tested_on": "UACC-62"}, "UO-31": {"tested_on": "UO-31"}, "NCI-H23": {"tested_on": "NCI-H23"}, "SK-MEL-5": {"tested_on": "SK-MEL-5"}, "A549": {"tested_on": "A549"}, "Malme-3M": {"tested_on": "Malme-3M"}, "MOLT-4": {"tested_on": "MOLT-4"}, "MCF7": {"tested_on": "MCF7"}, "KM12": {"tested_on": "KM12"}, "SNB-78": {"tested_on": "SNB-78"}, "DLD-1": {"tested_on": "DLD-1"}, "HCC 2998": {"tested_on": "HCC 2998"}}, "note": "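In this assay, cells in 96-well plates receive the compound at five concentrations for 48 hours. Endpoints are linearly interpolated between the surrounding concentrations. GI50 marks 50% less growth.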 Activity calls are given as the source filed them. No stated cut-off is given here; in the data, active = GI50 up to about 1.1 µM and inactive = higher."}
{"compound": "CC(C)[C@](O)(C(=O)OCC1=CCN2CC[C@@H](O)[C@@H]12)[C@H](C)O", "values": [{"measurement": "GI50", "setting": "SNB-19", "result": "> 375 µM (inactive)"}, {"measurement": "GI50", "setting": "OVCAR-3", "result": "> 375 µM (inactive)"}, {"measurement": "GI50", "setting": "NCI-H460", "result": "> 367 µM (inactive)"}, {"measurement": "GI50", "setting": "NCI-H522", "result": "59.4 µM (inactive)"}, {"measurement": "GI50", "setting": "HOP-92", "result": "> 375 µM (inactive)"}, {"measurement": "GI50", "setting": "COLO 205", "result": "> 375 µM (inactive)"}, {"measurement": "GI50", "setting": "SF-539", "result": "> 375 µM (inactive)"}, {"measurement": "GI50", "setting": "SNB-75", "result": "> 375 µM (inactive)"}, {"measurement": "GI50", "setting": "K562", "result": "> 375 µM (inactive)"}, {"measurement": "GI50", "setting": "SF-268", "result": "> 375 µM (inactive)"}, {"measurement": "GI50", "setting": "CAKI-1", "result": "> 375 µM (inactive)"}, {"measurement": "GI50", "setting": "HOP-62", "result": "> 335 µM (inactive)"}, {"measurement": "GI50", "setting": "SF-295", "result": "> 375 µM (inactive)"}, {"measurement": "GI50", "setting": "OVCAR-4", "result": "> 375 µM (inactive)"}, {"measurement": "GI50", "setting": "SK-OV-3", "result": "> 375 µM (inactive)"}, {"measurement": "GI50", "setting": "RXF 393", "result": "> 375 µM (inactive)"}, {"measurement": "GI50", "setting": "HOP-18", "result": "> 375 µM (inactive)"}, {"measurement": "GI50", "setting": "U-251", "result": "> 375 µM (inactive)"}, {"measurement": "GI50", "setting": "SK-MEL-28", "result": "> 375 µM (inactive)"}, {"measurement": "GI50", "setting": "HCT-15", "result": "> 375", "unit": "µM"}, {"measurement": "GI50", "setting": "A498", "result": "> 375 µM (inactive)"}, {"measurement": "GI50", "setting": "XF498", "result": "> 375 µM (inactive)"}, {"measurement": "GI50", "setting": "UACC-257", "result": "> 375 µM (inactive)"}, {"measurement": "GI50", "setting": "SW-620", "result": "> 237 µM (inactive)"}, {"measurement": "GI50", "setting": "HL-60", "result": "> 375 µM (inactive)"}, {"measurement": "GI50", "setting": "NCI-H226", "result": "> 375 µM (inactive)"}, {"measurement": "GI50", "setting": "OVCAR-8", "result": "> 375 µM (inactive)"}, {"measurement": "GI50", "setting": "M19-MEL", "result": "> 255 µM (inactive)"}, {"measurement": "GI50", "setting": "DMS-114", "result": "368 µM (inactive)"}, {"measurement": "GI50", "setting": "HCT-116", "result": "> 375 µM (inactive)"}, {"measurement": "GI50", "setting": "NCI/ADR-RES", "result": "> 375 µM (inactive)"}, {"measurement": "GI50", "setting": "SK-MEL-2", "result": "> 375 µM (inactive)"}, {"measurement": "GI50", "setting": "HT-29", "result": "> 375 µM (inactive)"}, {"measurement": "GI50", "setting": "LOX IMVI", "result": "> 174 µM (inactive)"}, {"measurement": "GI50", "setting": "EKVX", "result": "> 375 µM (inactive)"}, {"measurement": "GI50", "setting": "RPMI-8226", "result": "> 375 µM (inactive)"}, {"measurement": "GI50", "setting": "SN12C", "result": "> 375 µM (inactive)"}, {"measurement": "GI50", "setting": "IGROV-1", "result": "> 308 µM (inactive)"}, {"measurement": "GI50", "setting": "OVCAR-5", "result": "> 278 µM (inactive)"}, {"measurement": "GI50", "setting": "KM-20L2", "result": "> 375 µM (inactive)"}, {"measurement": "GI50", "setting": "CCRF-CEM", "result": "> 375 µM (inactive)"}, {"measurement": "GI50", "setting": "DMS-273", "result": "> 375 µM (inactive)"}, {"measurement": "GI50", "setting": "UACC-62", "result": "> 375 µM (inactive)"}, {"measurement": "GI50", "setting": "UO-31", "result": "> 375 µM (inactive)"}, {"measurement": "GI50", "setting": "NCI-H23", "result": "> 375 µM (inactive)"}, {"measurement": "GI50", "setting": "SK-MEL-5", "result": "> 80.7 µM (inactive)"}, {"measurement": "GI50", "setting": "A549", "result": "> 375 µM (inactive)"}, {"measurement": "GI50", "setting": "Malme-3M", "result": "> 375 µM (inactive)"}, {"measurement": "GI50", "setting": "MOLT-4", "result": "> 375 µM (inactive)"}, {"measurement": "GI50", "setting": "MCF7", "result": "> 375 µM (inactive)"}, {"measurement": "GI50", "setting": "KM12", "result": "> 375 µM (inactive)"}, {"measurement": "GI50", "setting": "SNB-78", "result": "> 375 µM (inactive)"}, {"measurement": "GI50", "setting": "DLD-1", "result": "> 375 µM (inactive)"}, {"measurement": "GI50", "setting": "HCC 2998", "result": "> 375 µM (inactive)"}]}
